Assay results reported in ChEMBL document CHEMBL4049416, “Synthesis and anti-cancer activities of new sulfonamides 4-substituted-triazolyl nucleosides” (Bioorg Med Chem Lett, 2017).
Calls of active or inactive are those of the source. The rule behind the calls is not given here.

Legend:
RCC4 [1] = assay: Anticancer activity against human RCC4 cells after 48 hrs by XTT assay; type: functional, cell-based; settings: RCC4, 48 h
MDA-MB-231 [2] = assay: Anticancer activity against human MDA-MB-231 cells after 48 hrs by XTT assay; type: functional, cell-based; settings: MDA-MB-231, 48 h
[3] = Micelle aggregation by the compound
[4] = Solubility of the compound; type: physicochemical
RCC4 [5] = assay: Induction of autophagy in human RCC4 cells assessed as increase in LC3 lipidation at 20 uM after 48 hrs by Western blot method; type: functional, cell-based
MDA-MB-231 [6] = assay: Anticancer activity against human MDA-MB-231 cells at 50 uM after 48 hrs by XTT assay; type: functional, cell-based
MDA-MB-231 [7] = assay: Potency index, ratio of AICAR IC50 to compound IC50 for human MDA-MB-231 cells; type: functional
RCC4 [8] = assay: Induction of autophagy in human RCC4 cells assessed as increase in LC3 cleavage at 20 uM after 48 hrs by Western blot method; type: functional, cell-based
RCC4 [9] = assay: Induction of apoptosis in human RCC4 cells assessed as PARP cleavage at 20 uM after 48 hrs by Western blot method; type: functional, cell-based
[10] = Potency index, ratio of AICAR IC50 to compound IC50 for human RCC4 cells; type: functional
RCC4 [11] = assay: Anticancer activity against human RCC4 cells at 50 uM after 48 hrs by XTT assay; type: functional, cell-based
RCC4 [12] = assay: Induction of autophagy in human RCC4 cells assessed as increase in LC3 conversion at 1 mM after 48 hrs by Western blot method; type: functional, cell-based

| SMILES | IC50 (RCC4 [1]) [µM] | IC50 (MDA-MB-231 [2]) [µM] | further results |
| --- | --- | --- | --- |
| CC(=O)OC[C@H]1O[C@@H](n2cc(CN(c3ccccc3)S(=O)(=O)c3ccccc3)nn2)[C@H](OC(C)=O)[C@@H]1OC(C)=O | 150 | 100 | – |
| CS(=O)(=O)N(Cc1cn([C@@H]2O[C@H](CO)[C@@H](O)[C@H]2O)nn1)c1ccc(C#N)cc1 | 250 | > 250 | – |
| CC(=O)OC[C@H]1O[C@@H](O[C@H]2[C@H](OC(C)=O)[C@@H](OC(C)=O)[C@@H](n3cc(CN(c4ccc(C#N)cc4)S(C)(=O)=O)nn3)O[C@@H]2COC(C)=O)[C@H](OC(C)=O)[C@@H](OC(C)=O)[C@H]1OC(C)=O | 50 | 70 | – |
| CCN(CC)CCNC(=O)c1c(C)[nH]c(/C=C2\C(=O)Nc3ccc(F)cc32)c1C [SUNITINIB] | 4 | 6 | – |
| CC(=O)OC[C@H]1O[C@@H](n2cc(CN(c3ccc(Cl)cc3)S(=O)(=O)c3ccccc3)nn2)[C@H](OC(C)=O)[C@@H]1OC(C)=O | 250 | 250 | – |
| COc1cccc(N(Cc2cn([C@@H]3O[C@H](COC(C)=O)[C@@H](OC(C)=O)[C@H](OC(C)=O)[C@H]3OC(C)=O)nn2)S(C)(=O)=O)c1 | 200 | 220 | – |
| COC(=O)C(C)(C)N(Cc1cn([C@@H]2O[C@H](COC(C)=O)[C@@H](OC(C)=O)[C@H]2OC(C)=O)nn1)S(C)(=O)=O | 50 | 240 | – |
| CC(=O)OC[C@H]1O[C@@H](n2cc(CN(c3ccc(C#N)cc3)S(C)(=O)=O)nn2)[C@H](OC(C)=O)[C@@H]1OC(C)=O | 235 | 100 | – |
| CCCCCCN(Cc1cn([C@@H]2O[C@H](COC(C)=O)[C@@H](OC(C)=O)[C@H]2OC(C)=O)nn1)S(C)(=O)=O | 140 | 225 | Activity [3]: inactive; solubility [4]: Soluble |
| CC(=O)OC[C@H]1O[C@@H](n2cc(CN(c3ccc(C#N)cc3)S(C)(=O)=O)nn2)[C@@H](OC(C)=O)[C@@H](OC(C)=O)[C@@H]1OC(C)=O | 240 | 230 | – |
| COC(=O)CN(Cc1cn([C@@H]2O[C@H](COC(C)=O)[C@@H](OC(C)=O)[C@H](OC(C)=O)[C@H]2OC(C)=O)nn1)S(C)(=O)=O | > 250 | > 250 | – |
| CCS(=O)(=O)N(Cc1cn([C@H]2O[C@H](COC(C)=O)[C@@H](O[C@@H]3O[C@H](COC(C)=O)[C@H](OC(C)=O)[C@H](OC(C)=O)[C@H]3OC(C)=O)[C@H](OC(C)=O)[C@H]2OC(C)=O)nn1)c1ccc(Cl)cc1 | 160 | 150 | – |
| CC(=O)OC[C@H]1O[C@@H](n2cc(CN(c3ccccc3)S(C)(=O)=O)nn2)[C@H](OC(C)=O)[C@@H]1OC(C)=O | 180 | 250 | – |
| CCCCCCCCCCCCCCCCN(Cc1cn([C@@H]2O[C@H](COC(C)=O)[C@@H](OC(C)=O)[C@H]2OC(C)=O)nn1)S(C)(=O)=O | 13 | 15 | Activity (RCC4 [5]): Active; Activity (MDA-MB-231 [6]): Active; Ratio IC50 (MDA-MB-231 [7]): 66; Activity (RCC4 [8]): Active; Activity [3]: inactive; solubility [4]: Soluble; Activity (RCC4 [9]): Active; Ratio IC50 [10]: 19; Activity (RCC4 [11]): Active |
| CCS(=O)(=O)N(Cc1cn([C@H]2O[C@H](CO)[C@@H](O[C@@H]3O[C@H](CO)[C@H](O)[C@H](O)[C@H]3O)[C@H](O)[C@H]2O)nn1)c1ccc(Cl)cc1 | 200 | 215 | – |
| COC(=O)C(C)(C)N(Cc1cn([C@@H]2O[C@H](COC(C)=O)[C@@H](OC(C)=O)[C@H](OC(C)=O)[C@H]2OC(C)=O)nn1)S(C)(=O)=O | 240 | 225 | – |
| CC(=O)OC[C@H]1O[C@@H](n2cc(CN(c3ccc(C)cc3)S(=O)(=O)c3ccccc3)nn2)[C@H](OC(C)=O)[C@@H]1OC(C)=O | 230 | 205 | – |

| SMILES | IC50 (RCC4 [1]) [µM] | IC50 (MDA-MB-231 [2]) [µM] | further results |
| --- | --- | --- | --- |
| CS(=O)(=O)N(Cc1cn([C@H]2O[C@H](CO)[C@@H](O[C@@H]3O[C@H](CO)[C@H](O)[C@H](O)[C@H]3O)[C@H](O)[C@H]2O)nn1)c1ccc(C#N)cc1 | 120 | 250 | – |
| CC(=O)OC[C@H]1O[C@@H](n2cc(CN(c3ccc(Cl)cc3)S(=O)(=O)c3ccccc3)nn2)[C@H](OC(C)=O)[C@@H](OC(C)=O)[C@@H]1OC(C)=O | 115 | 135 | – |
| CC(=O)OC[C@H]1O[C@@H](n2cc(CN(c3ccc(C)cc3)S(=O)(=O)c3ccccc3)nn2)[C@H](OC(C)=O)[C@@H](OC(C)=O)[C@@H]1OC(C)=O | 130 | 180 | – |
| CCCCCCCCCCCCCCN(Cc1cn([C@@H]2O[C@H](COC(C)=O)[C@@H](OC(C)=O)[C@H]2OC(C)=O)nn1)S(C)(=O)=O | 29 | 31 | Activity [3]: inactive; solubility [4]: Soluble |
| CC(=O)OC[C@H]1O[C@@H](n2cc(CN(c3ccc(C#N)cc3)S(C)(=O)=O)nn2)[C@H](OC(C)=O)[C@@H](OC(C)=O)[C@@H]1OC(C)=O | 120 | 215 | – |
| CCS(=O)(=O)N(Cc1cn([C@@H]2O[C@H](COC(C)=O)[C@@H](OC(C)=O)[C@H](OC(C)=O)[C@H]2OC(C)=O)nn1)c1ccccc1 | 175 | 155 | – |
| CCS(=O)(=O)N(Cc1cn([C@@H]2O[C@H](COC(C)=O)[C@@H](OC(C)=O)[C@H](OC(C)=O)[C@H]2OC(C)=O)nn1)c1ccc(Cl)cc1 | > 250 | > 250 | – |
| COc1cccc(N(Cc2cn([C@@H]3O[C@H](COC(C)=O)[C@@H](OC(C)=O)[C@H]3OC(C)=O)nn2)S(C)(=O)=O)c1 | 190 | 160 | – |
| CC(=O)OC[C@H]1O[C@@H](n2cc(CN(c3ccc(C#N)cc3)S(C)(=O)=O)nn2)[C@H](OC(C)=O)[C@@H](OC(C)=O)[C@H]1OC(C)=O | 170 | 100 | – |
| CC(=O)OC[C@H]1O[C@@H](n2cc(CN(c3ccc(C#N)cc3)S(C)(=O)=O)nn2)[C@H](OC(C)=O)[C@@H](OC(C)=O)[C@@H]1O[C@H]1O[C@H](COC(C)=O)[C@@H](OC(C)=O)[C@H](OC(C)=O)[C@H]1OC(C)=O | 230 | 230 | – |
| CS(=O)(=O)N(Cc1cn([C@@H]2O[C@H](CO)[C@@H](O)[C@H](O)[C@H]2O)nn1)c1ccc(C#N)cc1 | 200 | 185 | – |
| COC(=O)CN(Cc1cn([C@@H]2O[C@H](COC(C)=O)[C@@H](OC(C)=O)[C@H]2OC(C)=O)nn1)S(C)(=O)=O | 125 | 250 | – |
| NC(=O)c1ncn([C@@H]2O[C@H](CO)[C@@H](O)[C@H]2O)c1N [ACADESINE] | 250 | 1000 | Activity (RCC4 [12]): Active |
| CCS(=O)(=O)N(Cc1cn([C@@H]2O[C@H](COC(C)=O)[C@@H](OC(C)=O)[C@H]2OC(C)=O)nn1)c1ccc(Cl)cc1 | 250 | 250 | – |
| CS(=O)(=O)N(Cc1cn([C@@H]2O[C@H](CO)[C@@H](O[C@H]3O[C@H](CO)[C@@H](O)[C@H](O)[C@H]3O)[C@H](O)[C@H]2O)nn1)c1ccc(C#N)cc1 | 250 | 250 | – |
| CCCCN(Cc1cn([C@@H]2O[C@H](COC(C)=O)[C@@H](OC(C)=O)[C@H]2OC(C)=O)nn1)S(C)(=O)=O | 250 | 225 | Activity [3]: inactive; solubility [4]: Soluble |
